According to the NIST ThermoML archive (doi:10.1016/j.jct.2012.07.027):
Where “and” joins values, the source holds several entries; their conditions need not be identical. Equal values may be shown once.

What was measured:
[1] = for vapor or sublimation pressure: Closed cell (Static) method; for Normal melting temperature: DTA
[2] = Molar enthalpy of transition or fusion; conditions: Crystal; DSC

COC(=O)c1ccc(Br)cc1 [methyl 4-bromobenzoate]
[1]
Conditions	vapor or sublimation pressure [kPa]
293.31 K, Crystal	0.00042
295.32 K, Crystal	0.00054
297.3 K, Crystal	0.00068
299.26 K, Crystal	0.00087
301.24 K, Crystal	0.00109
303.23 K, Crystal	0.00139
305.21 K, Crystal	0.00173
307.22 K, Crystal	0.0022
309.17 K, Crystal	0.00277
311.2 K, Crystal	0.00345
313.13 K, Crystal	0.00422
315.14 K, Crystal	0.00523
317.13 K, Crystal	0.00651
319.04 K, Crystal	0.00797
321.09 K, Crystal	0.00985
323.08 K, Crystal	0.0121
325.13 K, Crystal	0.01501
327 K, Crystal	0.01789
329.05 K, Crystal	0.02213
331.03 K, Crystal	0.02686
333 K, Crystal	0.0324
335.03 K, Crystal	0.03924
336.96 K, Crystal	0.04713
338.94 K, Crystal	0.05664
340.91 K, Crystal	0.0673
342.9 K, Crystal	0.0811
344.79 K, Crystal	0.09642
346.85 K, Crystal	0.1156
348.81 K, Crystal	0.1363
354.73 K, Liquid	0.2096
356.68 K, Liquid	0.233
358.69 K, Liquid	0.259
360.68 K, Liquid	0.2932
362.63 K, Liquid	0.3282
364.63 K, Liquid	0.365
366.59 K, Liquid	0.4053
368.56 K, Liquid	0.4511
370.53 K, Liquid	0.5029
372.52 K, Liquid	0.5539
374.48 K, Liquid	0.6187
376.42 K, Liquid	0.6825
378.43 K, Liquid	0.752

Conditions	Normal melting temperature [°C]
[1], Crystal	78.07

Conditions	Molar enthalpy of transition or fusion [kJ/mol]
[2]	25.8

COC(=O)c1ccc(Cl)cc1 [methyl 4-chlorobenzoate]
[1]
Conditions	vapor or sublimation pressure [kPa]
276.44 K, Crystal	0.00043
278.37 K, Crystal	0.00055
280.36 K, Crystal	0.00071
282.35 K, Crystal	0.00092
284.34 K, Crystal	0.00118
285.3 K, Liquid	0.00301
286.32 K, Crystal	0.00148
287.31 K, Liquid	0.00363
288.29 K, Crystal	0.00191
289.27 K, Liquid	0.00436
290.31 K, Crystal	0.00242
291.28 K, Liquid	0.0052
292.3 K, Crystal	0.00308
293.26 K, Liquid	0.00618
294.26 K, Crystal	0.00389
295.27 K, Liquid	0.00739
296.29 K, Crystal	0.00489
297.26 K, Liquid	0.00872
298.24 K, Crystal	0.00611
299.23 K, Liquid	0.01031
300.23 K, Crystal	0.00765
301.21 K, Liquid	0.01212
302.21 K, Crystal	0.00956
303.18 K, Liquid	0.01428
304.18 K, Crystal	0.01181
305.19 K, Liquid	0.01678
306.12 K, Crystal	0.01452
307.17 K, Liquid	0.01959
308.18 K, Crystal	0.01815
309.12 K, Liquid	0.02291
310.15 K, Crystal	0.0222
311.13 K, Liquid	0.02675
312.09 K, Crystal	0.02704
313.12 K, Liquid	0.0311
314.62 K, Liquid	0.03483
316.12 K, Liquid	0.03877
318.07 K, Liquid	0.0448
318.88 K, Liquid	0.04755
321.14 K, Liquid	0.05585
322.9 K, Liquid	0.06343
324.86 K, Liquid	0.07327
327.05 K, Liquid	0.084
329.03 K, Liquid	0.0959
331 K, Liquid	0.1092
332.98 K, Liquid	0.125
333.97 K, Liquid	0.1325

Conditions	Normal melting temperature [°C]
[1], Crystal	41.98

Conditions	Molar enthalpy of transition or fusion [kJ/mol]
[2]	21.3

COC(=O)c1ccc(F)cc1 [methyl p-fluorobenzoate]
[1], Liquid
Conditions	vapor or sublimation pressure
268.58 K	0.00431 kPa
270.54 K	0.00518 kPa
272.52 K	0.00628 kPa
274.49 K	0.00754 kPa
276.46 K	0.00902 kPa
278.44 K	0.01071 kPa
280.4 K	0.01279 kPa
281.87 K	0.01451 kPa
283.38 K	0.0165 kPa
285.35 K	0.0195 kPa
287.34 K	0.02314 kPa
289.34 K	0.02719 kPa
291.34 K	0.0319 kPa
293.24 K	0.03702 kPa
295.27 K	0.04353 kPa
297.28 K	0.05103 kPa
299.22 K	0.05905 kPa
301.21 K	0.06815 kPa
303.17 K	0.07895 kPa
305.16 K	0.09121 kPa and 0.09107 kPa
307.18 K	0.1051 kPa
309.2 K	0.1209 kPa
311.15 K	0.1388 kPa
313.16 K	0.1594 kPa
315.12 K	0.1817 kPa
317.15 K	0.208 kPa
319.07 K	0.2349 kPa
321.11 K	0.2685 kPa
323.09 K	0.3015 kPa
325.07 K	0.3433 kPa
327.04 K	0.3848 kPa
329.03 K	0.4342 kPa
331 K	0.4875 kPa
332.99 K	0.549 kPa
334.97 K	0.6142 kPa
336.95 K	0.6904 kPa
338.92 K	0.7681 kPa
340.9 K	0.8612 kPa and 0.8627 kPa
342.87 K	0.9546 kPa
344.85 K	1.061 kPa

Conditions	Normal melting temperature [°C]
[1], Crystal	0.6

Conditions	Molar enthalpy of transition or fusion [kJ/mol]
[2]	15.4

COC(=O)c1ccc(I)cc1 [methyl p-iodobenzoate]
[1]
Conditions	vapor or sublimation pressure [kPa]
313.11 K, Crystal	0.00044
315.03 K, Crystal	0.00054
317.12 K, Crystal	0.00069
319.05 K, Crystal	0.00087
321.04 K, Crystal	0.00108
323.04 K, Crystal	0.00134
325 K, Crystal	0.00165
326.97 K, Crystal	0.00206
329 K, Crystal	0.00253
330.93 K, Crystal	0.00315
332.89 K, Crystal	0.00387
334.91 K, Crystal	0.00478
336.94 K, Crystal	0.00583
342.8 K, Crystal	0.01054
346.74 K, Crystal	0.01524
350.73 K, Crystal	0.02236
352.75 K, Crystal	0.02707
356.66 K, Crystal	0.03886
358.67 K, Crystal	0.04652
360.6 K, Crystal	0.05489
362.63 K, Crystal	0.06557
364.61 K, Crystal	0.07801
366.58 K, Crystal	0.09145
368.45 K, Crystal	0.1085
370.54 K, Crystal	0.127
372.47 K, Crystal	0.1479
374.46 K, Crystal	0.1734
376.44 K, Crystal	0.2047
378.41 K, Crystal	0.2394
380.38 K, Crystal	0.2786
386.32 K, Liquid	0.4305
388.2 K, Liquid	0.4717
390.26 K, Liquid	0.5231
391.24 K, Liquid	0.5484
392.21 K, Liquid	0.5758
394.18 K, Liquid	0.6343
396.15 K, Liquid	0.698
398.14 K, Liquid	0.7666
400.1 K, Liquid	0.8418
402.07 K, Liquid	0.9228
404.04 K, Liquid	1.011
406.02 K, Liquid	1.106

Conditions	Normal melting temperature [°C]
[1], Crystal	113.52

Conditions	Molar enthalpy of transition or fusion [kJ/mol]
[2]	29.7
